We go through 7 compounds from patent publication US7381722B2, “Tetracyclic amino and carboxamido compounds and methods of use thereof” (Inotek Pharmaceuticals Corporation, priority 2005, dated 2008).

In the test the target is T1, PARS (Mus musculus, UniProt P11103).
T1 construct: endogenous in cells; host or cells: Raw murine macrophages
The experiment in a line: Cell protection assay: PARS activity in peroxynitrite-treated Raw murine macrophages. Format: cell-based. The settings on record: compound 15 min before peroxynitrite (750 μM) for 15 min, PARS activity by 3H-NAD incorporation, EC50 from dose-response curve. On the procedure:
Raw murine macrophages were treated with an illustrative Tetracyclic Amino Compound or Tetracyclic Carboxamido Compound for 15 minutes prior to the addition of peroxynitrite (750 μM) for a further 15 minutes. For the measurement of PARS activity, the media were removed and replaced with 0.5 ml HEPES (pH 7.5) containing 0.01% digitonin and ^3H-NAD (0.5 μCi ml^−1, final concentration of NAD^+ in buffer is 20 nM/L) for 20 minutes. The cells were then scraped from the wells and placed in Eppendorf tubes containing 200 μl of 50% (w/v) ice-cold trichloroacetic acid (TCA). The tubes were then placed at 4° C. After 4 hr the tubes were centrifuged at 1800 g for 10 minutes and the supernatant removed. The pellets were washed twice with 500 μl ice-cold 5% TCA. The pellets were solubilized in 250 μl NaOH (0.1 M) containing 2% SDS overnight at 37° C. and the PARS activity was then determined by measuring the radioactivity incorporated using a Wallac scintillation counter. The solubilized protein (250 μl) was mixed with 5 ml of scintillant (ScintiSafe Plus, Fisher Scientific) before being counted for 10 minutes. The EC50 value was calculated from a dose-response curve.

pEC50: −log10 of the molar value.

T1 sequence (P11103 whole entry): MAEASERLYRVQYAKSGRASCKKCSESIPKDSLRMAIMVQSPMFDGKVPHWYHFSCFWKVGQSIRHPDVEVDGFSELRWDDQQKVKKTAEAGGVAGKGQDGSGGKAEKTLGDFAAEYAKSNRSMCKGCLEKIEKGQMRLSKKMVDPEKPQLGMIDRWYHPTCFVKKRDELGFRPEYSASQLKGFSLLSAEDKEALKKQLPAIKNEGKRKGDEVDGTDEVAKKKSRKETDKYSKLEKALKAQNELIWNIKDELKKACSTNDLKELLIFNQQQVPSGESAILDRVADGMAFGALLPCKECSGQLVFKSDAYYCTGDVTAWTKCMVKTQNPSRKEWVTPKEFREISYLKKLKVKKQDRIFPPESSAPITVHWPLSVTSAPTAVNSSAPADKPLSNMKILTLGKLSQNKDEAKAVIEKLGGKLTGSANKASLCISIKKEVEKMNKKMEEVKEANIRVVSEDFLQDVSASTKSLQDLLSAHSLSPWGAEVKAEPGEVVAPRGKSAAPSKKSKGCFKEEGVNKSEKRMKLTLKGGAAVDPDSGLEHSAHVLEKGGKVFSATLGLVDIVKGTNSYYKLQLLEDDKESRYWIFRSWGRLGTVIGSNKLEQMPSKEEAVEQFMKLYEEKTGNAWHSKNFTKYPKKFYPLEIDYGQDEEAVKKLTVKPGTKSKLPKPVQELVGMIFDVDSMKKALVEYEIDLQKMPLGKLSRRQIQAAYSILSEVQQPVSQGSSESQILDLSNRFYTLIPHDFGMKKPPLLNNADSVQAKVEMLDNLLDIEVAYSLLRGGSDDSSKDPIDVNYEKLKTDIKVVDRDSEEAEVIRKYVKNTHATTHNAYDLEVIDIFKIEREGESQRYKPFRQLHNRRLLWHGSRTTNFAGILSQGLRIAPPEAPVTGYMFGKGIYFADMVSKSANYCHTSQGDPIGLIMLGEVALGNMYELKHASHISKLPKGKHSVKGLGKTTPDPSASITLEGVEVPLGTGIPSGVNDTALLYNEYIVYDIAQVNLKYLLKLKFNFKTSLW

In general, pEC50 refers to −log10 of the EC50, conventionally taken in molar units. Lower therefore signals a large EC50. In turn, `CN(C)CCCNC(=O)c1ccc2c(c1)Cc1c-2[nH]c(=O)c2ccccc12` [Compound 13b] gave a pEC50 of 6.05. Under `O=C(NCCN1CCOCC1)c1ccc2c(c1)Cc1c-2[nH]c(=O)c2ccccc12` [Compound 14a] stands 5.96; under `O=C(NCCCN1CCOCC1)c1ccc2c(c1)Cc1c-2[nH]c(=O)c2ccccc12` [Compound 14b], 5.96; under `CN(C)CCNC(=O)c1cccc2c1Cc1c-2[nH]c(=O)c2ccccc12` [Compound 15a], less than 5.82. For the compound `CN(C)CCCNC(=O)c1cccc2c1Cc1c-2[nH]c(=O)c2ccccc12` [Compound 15b], the pEC50 is less than 5.82. `O=C(NCCN1CCOCC1)c1cccc2c1Cc1c-2[nH]c(=O)c2ccccc12` [Compound 16a] gave a pEC50 of less than 5.82. Under `O=C(NCCCN1CCOCC1)c1cccc2c1Cc1c-2[nH]c(=O)c2ccccc12` [Compound 16b] stands less than 5.82.
